# Non-standard residues stand in square brackets, D forms with d. Residues, ends and D or L forms follow the SMILES beside them.
# What was measured:
# aspergillus flavous = experiment: microbe, parasite or virus in culture; format: cell-based
# Method: (§1) • (1) Test strains: monilia albicans (candida albicans), candida glabrata, candida krusei, candida tropicalis, aspergillus fumigatus and flavous. Antimicrobial peptides PL-13 (SEQ ID NO: 1) under test are supplied by Jiangsu ProteLight Pharmaceutical & Biotechnology Co., LTD. […] Activation of bacterial strains is conducted at a humidity level of 60% and 25° C. (for aspergillus) or 37° C. (for candida). (2) 0.9% stroke-physiological saline solution comprising 0.5% Tween-80 is used to prepare bacterial suspension for experiment. Hemocytometer is utilized to adjust concentration of the bacterial suspension to 1-3×10^6 CFU/ml (0.5 McFarland units) to make stock solution in reserve at -20° C. During the sensitivity test, the RPMI-1640 liquid medium is diluted 1000 times to 1-3×10^3 CFU/ml. (3) The RPMI-1640 liquid is utilized as diluent to 10-fold dilute stock solution of peptides. […] The eleventh orifice is used as living control orifice, while the twelfth one as blank control. (4) The RPMI-1640 liquid is utilized as diluent to 10-fold dilute stock solution of FCZ and ICZ. […] Ditto for other operations.
# candida albicans = experiment: microbe, parasite or virus in culture; format: cell-based
# Method: as §1
# [1] = Circular dichroism (CD) spectroscopy, helical structure; format: physicochemical; conditions: for 50% TFE % helix / Benign buffer % helix: relative to ellipticity (100%) of reference peptide in 50% TFE
# Method: The mean residue molar ellipticities of peptides are determined by circular dichroism (CD) spectroscopy, using a Jasco J-720 spectropolarimeter (Jasco, Easton, Md.), at 25° C. under benign conditions (50 mM KH2PO4/K2HPO4/100 mM KCl, pH7), as well as in the presence of an α-helix inducing solvent, 2,2,2-trifluoroethanol (TFE) (50 mM KH2PO4/K2HPO4/100 mM KCL, pH 7 buffer/50% TFE). A 10-fold dilution of a 500 μM stock solution of the peptide is loaded into a 0.02 cm fused silica cell and its mean residue molar ellipticity scanned from 190 to 250 nm. The values of mean residue molar ellipticities of the peptide at a wavelength of 222 nm are used to estimate the relative amount of α-helicity of the peptides.
# To determine the secondary structure of peptides in different environments, circular dichroism (CD) spectra of the peptide analogs are measured under physiologically related pH and ionic strength (100 mM KCl, 50 mM aq. PO4, pH 7 referred to as benign conditions) and also in 50% TFE to mimic the hydrophobic environment of the membrane. CD spectra of the peptide analogs are measured under benign conditions (100 mM KCl, 50 mM KH2PO4/K2HPO4, pH 7, referred to as KP buffer) and also in 50% trifluoroethanol (TFE) to mimic the hydrophobic environment of the membrane. […] However, in the presence of 50% TFE, all three L-peptides are fully folded α-helical structures with similar molar ellipticities and helicity.
# FIG. 2 illustrates graphical results of Circular dichroism (CD) spectra of peptides at pH 7.4 and 25° C., in 50 mM aq. PO4 containing 100 mM KCl, wherein KP buffer (50 mM KH2PO4, K2HPO4, 100 mM KCl, pH 7.4) mimics hydrophilic environment and KP buffer-TFE (1:1 [vol/vol]) mimics hydrophobic environment of cell membrane. The figure above represents the CD spectra of peptides in benign buffer without TFE, whilst the figure below represents CD spectra obtained in the presence of 50% TFE.
# [2] = RP-HPLC temperature profiling: hydrophobicity and self-association; format: physicochemical; conditions: for tR(min) 5° C. / tR(min) 80° C.: RP-HPLC temperature profiling; for PA (min), association parameter: maximal normalized retention time difference within 5-80° C., self-association ability; for tR(min) Max: maximal retention time during temperature profiling 5-80° C.; for ΔtR(X-Peptide C)(min) 5° C.: retention time difference to control peptide C at 5° C.; for ΔtR(X-Peptide C)(min) 5° C. / ΔtR(X-Peptide C)(min) 80° C.: relative hydrophobicity; for ΔtR(X-Peptide C)(min) 80° C.: retention time difference to control peptide C at 80° C.; for Hydrophobicity tR5: retention time in RP-HPLC at pH 2, 5° C.; for Hydrophobicity tR80: retention time in RP-HPLC at pH 2, 80° C.
# Method: Peptides are analyzed on an Agilent 1200 series liquid chromatograph (Little Falls, Del.). Runs are performed on a Zorbax 300 SB-C8 column (150×4.6 mm I.D.; 5 μm particle size, 300 Å pore size) from Agilent Technologies using linear AB gradient (1% acetonitrile/min) and a flow rate of 1 ml/min, where solvent A is 0.05% aqueous TFA, pH 2 and solvent B is 0.05% TFA in acetonitrile.
# We further use temperature profiling during RP-HPLC to determine the self-association ability of various analogs of PL-13 (SEQ ID NO: 1) which would occur through interaction of the non-polar faces of these amphipathic peptides α-helices. We use 50% TFE aqueous acetonitrile and hydrophobic conditions in the reversed-phase column (hydrophobic stationary phase and the hydrophobic organic solvent in the mobile phase) since the hydrophobic environment of a reversed-phase column also could induce α-helical structure. Since its introduction, the technique of RP-HPLC temperature profiling has been applied on several types of molecules, including cyclic β-sheet peptides, monomeric α-helices and α-helices that dimerize, as well as α-helices that dimerize to form coiled-coils. Although peptides are eluted from a reversed-phase column mainly by an adsorption/desorption mechanism, even a peptide strongly bound to a hydrophobic stationary phase will partition between the matrix and the mobile phase when the acetonitrile content becomes high enough during gradient elution. In summary, the mechanism is based on four assumptions: (i) at low temperature, just as an amphipathic α-helical peptide is able to dimerize in aqueous solution (through its hydrophobic, non-polar face), it will dimerize in solution during partitioning in reversed-phase chromatography; (ii) at higher temperatures, the monomer-dimer equilibrium favors the monomer as the dimer is disrupted; (iii) at sufficiently high temperatures, only monomer is present in solution; and (iv) peptide is always bound in its monomeric helical form to the hydrophobic stationary phase, i.e., the dimer can only be present in solution and disruption of the dimer is required for rebinding to the RP-HPLC matrix.
# ([θ]222=−3,950). Since peptide C is a monomeric random coil peptide in both aqueous and hydrophobic media, its retention behavior over the temperature range 5-80° C. represents only general temperature effects on peptide retention behavior, i.e., a linear decrease in peptide retention time with increasing temperature due to greater solute diffusivity and enhanced mass transfer between the stationary and mobile phases at higher temperatures. Thus, after normalization to the retention times of peptide C, the retention behavior of the peptides only represents peptide self-association ability. Note that the higher the PA value, the greater the self-association ability. The order of peptide self-association ability of the three pairs of peptide enantiomers is identical to the order of peptide hydrophobicity. Apart from the decrease in retention time due to the general temperature effects noted above, destruction of the α-helix will also occur with increasing temperature, resulting in reduced retention times as the peptides become increasingly random coils.
# The retention time data for the peptides is shown in Table 6 which records retention times at 5° C., the maximal retention times and retention times at 80° C. during the temperature profiling. Temperatures of 5-80° C. are the lower and upper temperature limits of temperature profiling in RP-HPLC, representing polymerization of the peptides at 5° C. and the monomerization of peptides at 80° C. due to denaturation of peptides by high temperature and dissociation of the polymers. The maximal retention times represent the threshold points at which peptides totally transform from polymeric to monomeric form. […]
# candida glabrata = experiment: microbe, parasite or virus in culture; format: cell-based
# Method: as §1
# aspergillus fumigatus = experiment: microbe, parasite or virus in culture; format: cell-based
# Method: as §1
# candida tropicalis = experiment: microbe, parasite or virus in culture; format: cell-based
# Method: as §1
molecule,measurement,setting,value
CC(=O)N[C@H](Cc1ccccc1)C(=O)N[C@H](CCCCN)C(=O)N[C@H](CCCCN)C(=O)N[C@H](CC(C)C)C(=O)N[C@H](CCCCN)C(=O)N[C@H](CCCCN)C(=O)N[C@H](CC(C)C)C(=O)N[C@H](Cc1ccccc1)C(=O)N[C@H](CO)C(=O)N[C@H](CCCCN)C(=O)N[C@H](CC(C)C)C(=O)N[C@H](CC(C)C)C(=O)N[C@H](CC(N)=O)C(=O)N[C@H](CC(C)C)C(=O)N[C@H](CCCCN)C(N)=O [PL-37] (Ac-[dF][dK][dK][dL][dK][dK][dL][dF][dS][dK][dL][dL][dN][dL][dK]-NH2),Minimal inhibitory concentration,aspergillus flavous,>64 µg/mL
CC(=O)N[C@H](CCCCN)C(=O)N[C@H](CC(C)C)C(=O)N[C@H](CCCCN)C(=O)N[C@H](CCCCN)C(=O)N[C@H](CC(C)C)C(=O)N[C@H](Cc1ccccc1)C(=O)N[C@H](CO)C(=O)N[C@H](CCCCN)C(=O)N[C@H](CC(C)C)C(=O)N[C@H](Cc1c[nH]c2ccccc12)C(=O)N[C@H](CC(N)=O)C(=O)N[C@H](Cc1c[nH]c2ccccc12)C(=O)N[C@H](CCCCN)C(N)=O [PL-40] (Ac-[dK][dL][dK][dK][dL][dF][dS][dK][dL][dW][dN][dW][dK]-NH2; N-terminus and C-terminus assumed),Minimal inhibitory concentration,candida albicans,16 µg/mL
same,Minimal inhibitory concentration,aspergillus flavous,>64 µg/mL
same,50% TFE % helix,[1],70.7%
same,Benign buffer % helix,[1],6.0%
same,tR(min) 5° C.,[2],33.16 min
same,tR(min) 80° C.,[2],30.94 min
same,"PA (min), association parameter",[2],0.55 min
same,tR(min) Max,[2],33.16 min
same,ΔtR(X-Peptide C)(min) 5° C.,[2],10.60 min
same,ΔtR(X-Peptide C)(min) 80° C.,[2],11.01 min
same,Hydrophobicity tR5,[2],33.16 min
same,Hydrophobicity tR80,[2],30.94 min
CC(=O)N[C@H](CC(C)C)C(=O)N[C@H](Cc1ccccc1)C(=O)N[C@H](CCCCN)C(=O)N[C@H](CCCCN)C(=O)N[C@H](CC(C)C)C(=O)N[C@H](CCCCN)C(=O)N[C@H](CCCCN)C(=O)N[C@H](CC(C)C)C(=O)N[C@H](Cc1ccccc1)C(=O)N[C@H](CO)C(=O)N[C@H](CCCCN)C(=O)N[C@H](CC(C)C)C(=O)N[C@H](Cc1c[nH]c2ccccc12)C(=O)N[C@H](CC(N)=O)C(=O)N[C@H](Cc1c[nH]c2ccccc12)C(=O)N[C@H](CCCCN)C(N)=O [PL-51] (Ac-[dL][dF][dK][dK][dL][dK][dK][dL][dF][dS][dK][dL][dW][dN][dW][dK]-NH2; N-terminus and C-terminus assumed),Minimal inhibitory concentration,aspergillus flavous,>64 µg/mL
same,50% TFE % helix,[1],100.0%
same,Benign buffer % helix,[1],16.8%
same,50% TFE [θ]222,"[1]; mean residue molar ellipticity at 222 nm, 25° C., buffer containing 50% TFE",28200 deg · cm^2 · dmol^−1
same,tR(min) 5° C.,[2],42.59 min
same,tR(min) 80° C.,[2],41.35 min
same,"PA (min), association parameter",[2],1.63 min
same,tR(min) Max,[2],42.96 min
same,ΔtR(X-Peptide C)(min) 5° C.,[2],20.02 min
same,ΔtR(X-Peptide C)(min) 80° C.,[2],21.42 min
same,Hydrophobicity tR5,[2],42.59 min
same,Hydrophobicity tR80,[2],41.35 min
Ac-FKKFKKLLSKLWNWK-NH2 (N-terminus and C-terminus assumed) [PL-32],Minimal inhibitory concentration,candida glabrata,32 µg/mL
same,Minimal inhibitory concentration,aspergillus flavous,>64 µg/mL
same,Minimal inhibitory concentration,aspergillus fumigatus,64 µg/mL
Ac-FKKLKKKFSKLWNWK-NH2 (N-terminus and C-terminus assumed) [PL-23],Minimal inhibitory concentration,candida albicans,16 µg/mL
same,Minimal inhibitory concentration,candida glabrata,32 µg/mL
same,Minimal inhibitory concentration,aspergillus flavous,>64 µg/mL
same,Minimal inhibitory concentration,aspergillus fumigatus,64 µg/mL
Ac-FKKLKKLFSKLWNWKK-NH2 (N-terminus and C-terminus assumed) [PL-48],Minimal inhibitory concentration,aspergillus flavous,>64 µg/mL
same,Minimal inhibitory concentration,candida tropicalis,8 µg/mL
same,Minimal inhibitory concentration,aspergillus fumigatus,32 µg/mL
Ac-KKLKKLFSKLWNW-NH2 (N-terminus and C-terminus assumed) [PL-30],Minimal inhibitory concentration,candida albicans,16 µg/mL
same,Minimal inhibitory concentration,candida glabrata,32 µg/mL
same,Minimal inhibitory concentration,aspergillus flavous,>64 µg/mL

# Source: US9273095B2, “Antibiotic peptide and preparation method therefor and application therefor” (priority 2011, dated 2016)
